US4760136A, “Chartreusin derivatives and salts thereof” (Ishihara Sangyo Kaisha, Ltd., priority 1984, dated 1988)
Read-outs that look alike come from different tables or passages of the source.

Legend:
Format in all cases: in vivo
[1] = system: ddY mice; assay: Acute toxicity, intravenous (once), ddY mice; conditions: formulated per Preparation Example
From the text: (§1) In Table 7 are shown acute toxicity values (LD50, mg/kg) in ddY mice in the case of intravenously administering (once) each of the compounds of this invention in the form of preparations shown in the Preparation Examples shown in Table 7.

[2] = system: P-388 leukemia cells; assay: Antitumor activity: P-388 leukemia cells inoculated intraperitoneally, drug administered intravenously, BDF1 mice; conditions: for response vs control in vivo at 20 mg/kg: dose b: 20 mg/kg × 3, i.v. on days 1, 5 and 9
Method in brief: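 Drug dosing was intravenous on the first, fifth and ninth days after intraperitoneal inoculation of P-388 leukemia cells (1×10^6 per mouse) into BDF1 mice. Vehicles were physiological saline alone, or saline with small amounts of sodium carboxymethyl cellulose or Tween-80.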

[3] = Acute toxicity, intravenous (once), ddY mice; conditions: mouse, in vivo, formulated per Preparation Example
From the text: as §1

[4] = Mus musculus, P388, iv, BDF1 mice, P-388 i.p., read-out: T/C (%) of MST
[5] = dose c: 40 mg/kg × 3, i.v. on days 1, 5 and 9, BDF1 mice, P-388 i.p.
[6] = Mus musculus, P388, iv, dose c: 40 mg/kg × 3, i.v. on days 1, 5 and 9, BDF1 mice, P-388 i.p., read-out: T/C (%) of MST
[7] = Mus musculus, P388, iv, dose f: 80 mg/kg × 3, i.v. on days 1, 5 and 9, BDF1 mice, P-388 i.p., read-out: T/C (%) of MST
[8] = Mus musculus, P388, iv, read-out: T/C (%) of MST

Compound: COC1C(O)C(C)OC(OC2C(Oc3cccc4c(OC(=O)C5CCCCC5NC(=O)C(F)(F)F)c5c(=O)oc6ccc(C)c7c(=O)oc(c34)c5c67)OC(C)C3OC(c4ccccc4)OC32)C1O (single isomer, unassigned) [Compound No. 26, 6-O-(N-Trifluoroacetyl-2-Amino-Cyclohexanecarbonyl)-3',4'-O-Benzylidene-Chartreusin]
- LD50 [1]: ≥ 40 mg/kg
- response vs control in vivo at 20 mg/kg [2, 4]: 195%
- T/C (%) of MST [2, 5]: 220%

Compound: COC1C(O)C(C)OC(OC2C(Oc3cccc4c(OC(=O)C5CCCCC5NC(=O)C(F)(F)F)c5c(=O)oc6ccc(C)c7c(=O)oc(c34)c5c67)OC(C)C3OC(c4cccc(F)c4)OC32)C1O (single isomer, unassigned) [Compound No. 117, 6-O-(N-Trifluoroacetyl-2-Amino-Cyclohexanecarbonyl)-3',4'-O-(m-Fluorobenzylidene)-Chartreusin]
- LD50 [1]: ≥ 30 mg/kg
- response vs control in vivo at 40 mg/kg [2, 6]: 135%

Compound: COC1C(O)C(C)OC(OC2C(Oc3cccc4c(OC(=O)CCN)c5c(=O)oc6ccc(C)c7c(=O)oc(c34)c5c67)OC(C)C3OC(c4ccccc4)OC32)C1O (stereo not drawn) [Compound No. 17]
- LD50 [1]: ≥ 40 mg/kg
- response vs control in vivo at 20 mg/kg [2, 4]: 206%
- T/C (%) of MST [2, 5]: 241%

Compound: COC1C(O)C(C)OC(OC2C(Oc3cccc4c(OC(=O)CCNC(=O)C(F)(F)F)c5c(=O)oc6ccc(C)c7c(=O)oc(c34)c5c67)OC(C)C3OC(c4ccccc4)OC32)C1O (stereo not drawn) [Compound No. 28, 6-O-(N-Trifluoroacetyl-β-Alanyl)-3',4'-O-Benzylidene-Chartreusin]
- LD50 [1]: ≥ 120 mg/kg
- response vs control in vivo at 80 mg/kg [2, 7]: 193%
- response vs control in vivo at 120 mg/kg ([2]; Mus musculus, P388, iv, dose h: 120 mg/kg × 3, i.v. on days 1, 5 and 9, BDF1 mice, P-388 i.p., read-out: T/C (%) of MST): 227%

Compound: COC1C(O)C(C)OC(OC2C(Oc3cccc4c(OC(=O)CCNC(C)=O)c5c(=O)oc6ccc(C)c7c(=O)oc(c34)c5c67)OC(C)C3OC(c4ccccc4)OC32)C1O (stereo not drawn) [Compound No. 29]
- LD50 [1]: ≥ 80 mg/kg
- response vs control in vivo at 40 mg/kg [2, 6]: 173%
- response vs control in vivo at 80 mg/kg [2, 7]: 221%

Compound: COC1C(O)C(C)OC(OC2C(Oc3cccc4c(OC(=O)C(C)CNC(=O)C(F)(F)F)c5c(=O)oc6ccc(C)c7c(=O)oc(c34)c5c67)OC(C)C3OC(c4cccc(F)c4)OC32)C1O (stereo not drawn) [Compound No. 37, 6-O-(N-trifluoroacetyl-β-amino-isobutyryl)-3',4'-O-(m-fluorobenzylidene)-chartreusin]
- LD50 [1]: ≥ 30 mg/kg
- response vs control in vivo at 10 mg/kg ([2]; Mus musculus, P388, iv, dose a: 10 mg/kg × 3, i.v. on days 1, 5 and 9, BDF1 mice, P-388 i.p., read-out: T/C (%) of MST): 146%

Compound: COC1C(O)C(C)OC(OC2C(Oc3cccc4c(OC(=O)CCNC=O)c5c(=O)oc6ccc(C)c7c(=O)oc(c34)c5c67)OC(C)C3OC(c4ccccc4)OC32)C1O (stereo not drawn) [Compound No. 40]
- LD50 [1]: ≥ 100 mg/kg
- response vs control in vivo at 80 mg/kg [2, 7]: 205%

Compound: COC1C(O)C(C)OC(OC2C(Oc3cccc4c(OC(=O)CCNC(=O)C(F)(F)F)c5c(=O)oc6ccc(C)c7c(=O)oc(c34)c5c67)OC(C)C3OC(c4ccccc4)OC32)C1O (stereo not drawn) [Compound No. 41]
- LD50 [1]: ≥ 100 mg/kg
- T/C (%) of MST [2, 5]: 157%

Compound: COC1C(O)C(C)OC(OC2C(Oc3cccc4c(OC(=O)CCCNC(=O)C(F)(F)F)c5c(=O)oc6ccc(C)c7c(=O)oc(c34)c5c67)OC(C)C3OC(c4ccc(F)cc4)OC32)C1O (stereo not drawn) [Compound No. 57]
- LD50 [1]: ≥ 80 mg/kg
- response vs control in vivo at 40 mg/kg [2, 6]: 162%
- response vs control in vivo at 80 mg/kg [2, 7]: 208%

Compound: COC1C(O)C(C)OC(OC2C(Oc3cccc4c(OC(=O)CCNC(=O)c5ccccc5)c5c(=O)oc6ccc(C)c7c(=O)oc(c34)c5c67)OC(C)C3OC(c4ccccc4)OC32)C1O (stereo not drawn) [compound 65]
- LD50 [1]: ≥ 60 mg/kg
- response vs control in vivo at 80 mg/kg [2, 7]: 175%

Compound: COC1C(O)C(C)OC(OC2C(Oc3cccc4c(OC(=O)CC(C)NC(=O)C(F)(F)F)c5c(=O)oc6ccc(C)c7c(=O)oc(c34)c5c67)OC(C)C3OC(c4ccccc4)OC32)C1O (stereo not drawn) [compound 66]
- LD50 [1]: ≥ 60 mg/kg
- response vs control in vivo at 80 mg/kg [2, 7]: 171%

Compound: COc1cccc(C(=O)Oc2c3cccc(O[C@@H]4O[C@H](C)[C@@H]5OC(CCc6ccccc6)O[C@@H]5[C@H]4O[C@H]4O[C@H](C)[C@H](O)[C@H](OC)[C@H]4O)c3c3oc(=O)c4c(C)ccc5oc(=O)c2c3c54)c1 (stereo partly drawn) [compound 218]
- LD50 ([3]; iv): ≥ 80 mg/kg
- response vs control in vivo at 80 mg/kg [2, 7]: 176%

Compound: CCC1O[C@H]2[C@@H](O1)[C@@H](C)O[C@@H](Oc1cccc3c(OC(=O)C(C)CC)c4c(=O)oc5ccc(C)c6c(=O)oc(c13)c4c56)[C@@H]2O[C@H]1O[C@H](C)[C@H](O)[C@H](OC)[C@H]1O (stereo partly drawn) [compound 219]
- LD50 [3]: ≥ 80 mg/kg
- response vs control in vivo at 40 mg/kg [2, 8]: 130%
- response vs control in vivo at 80 mg/kg [2, 8]: 182%

Compound: CCCCCCCCCC(=O)Oc1c2cccc(OC3OC(C)C4OC(C)(C)OC4C3OC3OC(C)C(O)C(OC)C3O)c2c2oc(=O)c3c(C)ccc4oc(=O)c1c2c43 (stereo not drawn) [compound 220]
- LD50 ([3]; iv): ≥ 60 mg/kg
- response vs control in vivo at 50 mg/kg ([2]; Mus musculus, P388, iv, dose d: 50 mg/kg × 3, i.v. on days 1, 5 and 9, BDF1 mice, P-388 i.p., read-out: T/C (%) of MST): 157%

Compound: C/C=C/C(=O)Oc1c2cccc(OC3OC(C)C4OC5(CCCCC5)OC4C3OC3OC(C)C(O)C(OC)C3O)c2c2oc(=O)c3c(C)ccc4oc(=O)c1c2c43 (stereo not drawn) [compound 221]
- LD50 [3]: ≥ 80 mg/kg
- response vs control in vivo at 80 mg/kg [2, 8]: 168%
